What was measured:
Assay type in all cases: functional, organism-based
[1] = system: rhinovirus A1B; test: Inhibitory activity against rhinovirus type 1B; conditions: Rhinovirus A
[2] = system: rhinovirus B4; test: Evaluated for inhibitory activity against rhinovirus type 4; conditions: Rhinovirus B
[3] = system: rhinovirus B5; test: Evaluated for inhibitory activity against rhinovirus type 5; conditions: Rhinovirus B
[4] = system: rhinovirus A2; test: Evaluated for inhibitory activity against rhinovirus type 2; conditions: Rhinovirus A

Structure (SMILES) | IC50 [1] [µM] | IC50 [2] [µM] | IC50 [3] [µM] | IC50 [4] [µM]
FC(F)(F)c1ccc(Nc2nc(Cl)nc3c2ncn3Cc2ccccc2)cc1 | 0.3 | 85 | 200 | 16.6
CCOC(=O)c1ccc(Nc2nc(Cl)nc3c2ncn3Cc2ccccc2)cc1 | > 10 |  |  | 
CS(=O)(=O)c1cccc(Nc2nc(Cl)nc3c2ncn3Cc2ccccc2)c1 | > 40 |  |  | 
Cc1ccc(Cn2cnc3c(Nc4ccccc4)nc(Cl)nc32)cc1 | 1 | 6.4 | > 8 | 3.9
CC(=O)Nc1ccc(Nc2nc(Cl)nc3c2ncn3Cc2ccccc2)cc1 | > 20 |  |  | 
CS(=O)(=O)c1ccc(Nc2nc(Cl)nc3c2ncn3Cc2ccccc2)cc1 | 2 | 4.5 |  | 10.5
Nc1ccc(Nc2nc(Cl)nc3c2ncn3Cc2ccccc2)cc1 | > 20 |  |  | 
Clc1nc(Nc2ccc(Br)cc2)c2ncn(Cc3ccccc3)c2n1 | 0.3 | 7.8 | 9.5 | 2.2
CCOC(=O)c1cccc(Nc2nc(Cl)nc3c2ncn3Cc2ccccc2)c1 | > 10 |  |  | 
Cc1ccc(Cn2cnc3c(N(C)C)nc(C(F)(F)F)nc32)cc1 | 0.03 |  |  | 
CC(C)Oc1ccc(Nc2nc(Cl)nc3c2ncn3Cc2ccccc2)cc1 | > 40 |  |  | 
O=[N+]([O-])c1cccc(Nc2nc(Cl)nc3c2ncn3Cc2ccccc2)c1 | > 10 |  |  | 
Clc1nc(Nc2ccccc2)c2ncn(Cc3ccccc3)c2n1 | 1.65 | 14.2 | 16.3 | 8.3
Cc1ccc(Cn2cnc3c(N(C)c4ccccc4)nc(C(F)(F)F)nc32)cc1 | 1.9 | 5.1 | > 8 | 2.7
Clc1nc(Nc2cccc(Br)c2)c2ncn(Cc3ccccc3)c2n1 | 2.9 | 5.7 | 7.6 | 2.8
CC(=O)Nc1cccc(Nc2nc(Cl)nc3c2ncn3Cc2ccccc2)c1 | 1.3 |  |  | 
Fc1cccc(Nc2nc(Cl)nc3c2ncn3Cc2ccccc2)c1 | 1.2 | 5.5 | 5.6 | 5.6
Cc1ccc(Nc2nc(Cl)nc3c2ncn3Cc2ccccc2)cc1 | 0.3 |  |  | 1.2
CCCCc1ccc(Nc2nc(Cl)nc3c2ncn3Cc2ccccc2)cc1 | > 10 |  |  | 
Fc1ccc(Nc2nc(Cl)nc3c2ncn3Cc2ccccc2)cc1 | 1.28 | 6.8 | 10 | 6.2
CC(C)Oc1cccc(Nc2nc(Cl)nc3c2ncn3Cc2ccccc2)c1 | 2 | 8.3 |  | 3.6
CCCCOc1ccc(Nc2nc(Cl)nc3c2ncn3Cc2ccccc2)cc1 | > 40 |  |  | 
N#Cc1ccc(Nc2nc(Cl)nc3c2ncn3Cc2ccccc2)cc1 | 9.4 |  |  | 
CCCCOc1cccc(Nc2nc(Cl)nc3c2ncn3Cc2ccccc2)c1 | 22 |  |  | 
CN(C)c1ccc(Nc2nc(Cl)nc3c2ncn3Cc2ccccc2)cc1 | > 40 |  |  | 
CSc1ccc(Nc2nc(Cl)nc3c2ncn3Cc2ccccc2)cc1 | 0.14 | 8.7 |  | 11
Nc1cccc(Nc2nc(Cl)nc3c2ncn3Cc2ccccc2)c1 | > 10 |  |  | 
CN(C)c1cccc(Nc2nc(Cl)nc3c2ncn3Cc2ccccc2)c1 | 2.4 | 8.4 | 8.5 | 3.1
